According to the NIST ThermoML archive (doi:10.1021/je600519p):

Experiment: xn = mol fraction of the nth substance listed
Conditions: 101 kPa, Liquid

CC(=O)c1ccccc1 [acetophenone] + CCCCCCO
Conditions	mass density [kg/m3]	speed of sound [m/s]	viscosity [mPa·s]
293.15 K, x1 = 0.0498	828.69	1316	4.831
293.15 K, x1 = 0.1009	838.84	1323	4.397
293.15 K, x1 = 0.1517	848.99	1331	3.997
293.15 K, x1 = 0.2106	860.83	1341	3.605
293.15 K, x1 = 0.2474	868.27	1348	3.31
293.15 K, x1 = 0.3028	879.53	1358	2.986
293.15 K, x1 = 0.3426	887.67	1365	2.744
293.15 K, x1 = 0.3978	899.01	1375	2.491
293.15 K, x1 = 0.4512	910.05	1385	2.266
293.15 K, x1 = 0.4985	919.88	1394	2.085
293.15 K, x1 = 0.5526	931.2	1404	1.93
293.15 K, x1 = 0.6071	942.67	1415	1.798
293.15 K, x1 = 0.6491	951.55	1424	1.744
293.15 K, x1 = 0.7101	964.53	1437	1.65
293.15 K, x1 = 0.7485	972.75	1445	1.664
293.15 K, x1 = 0.8019	984.23	1457	1.673
293.15 K, x1 = 0.8521	995.09	1467	1.691
293.15 K, x1 = 0.9045	1006.5	1476	1.71
293.15 K, x1 = 0.9554	1017.63	1485	1.727
303.15 K, x1 = 0.0498	821.41	1285	3.559
303.15 K, x1 = 0.1009	831.48	1293	3.262
303.15 K, x1 = 0.1517	841.54	1302	2.989
303.15 K, x1 = 0.2106	853.28	1313	2.725
303.15 K, x1 = 0.2474	860.66	1320	2.511
303.15 K, x1 = 0.3028	871.83	1332	2.306
303.15 K, x1 = 0.3426	879.89	1340	2.148
303.15 K, x1 = 0.3978	891.14	1351	1.961
303.15 K, x1 = 0.4512	902.09	1362	1.805
303.15 K, x1 = 0.4985	911.85	1371	1.692
303.15 K, x1 = 0.5526	923.08	1382	1.583
303.15 K, x1 = 0.6071	934.47	1393	1.488
303.15 K, x1 = 0.6491	943.29	1402	1.442
303.15 K, x1 = 0.7101	956.19	1414	1.431
303.15 K, x1 = 0.7485	964.35	1421	1.426
303.15 K, x1 = 0.8019	975.77	1430	1.455
303.15 K, x1 = 0.8521	986.56	1439	1.465
303.15 K, x1 = 0.9045	997.88	1445	1.48
303.15 K, x1 = 0.9554	1008.95	1451	1.496
313.15 K, x1 = 0.0498	813.97	1277	2.684
313.15 K, x1 = 0.1009	823.85	1285	2.481
313.15 K, x1 = 0.1517	833.75	1293	2.292
313.15 K, x1 = 0.2106	845.32	1303	2.104
313.15 K, x1 = 0.2474	852.58	1310	1.977
313.15 K, x1 = 0.3028	863.61	1320	1.812
313.15 K, x1 = 0.3426	871.57	1328	1.697
313.15 K, x1 = 0.3978	882.7	1339	1.58
313.15 K, x1 = 0.4512	893.55	1350	1.483
313.15 K, x1 = 0.4985	903.23	1360	1.396
313.15 K, x1 = 0.5526	914.38	1370	1.322
313.15 K, x1 = 0.6071	925.7	1380	1.263
313.15 K, x1 = 0.6491	934.49	1387	1.255
313.15 K, x1 = 0.7101	947.35	1398	1.243
313.15 K, x1 = 0.7485	955.5	1404	1.252
313.15 K, x1 = 0.8019	966.9	1408	1.264
313.15 K, x1 = 0.8521	977.72	1409	1.266
313.15 K, x1 = 0.9045	989.09	1411	1.271
313.15 K, x1 = 0.9554	1000.23	1416	1.276
323.15 K, x1 = 0.0498	806.47	1230	2.119
323.15 K, x1 = 0.1009	816.28	1238	1.97
323.15 K, x1 = 0.1517	826.11	1247	1.831
323.15 K, x1 = 0.2106	837.59	1259	1.69
323.15 K, x1 = 0.2474	844.8	1266	1.585
323.15 K, x1 = 0.3028	855.74	1278	1.48
323.15 K, x1 = 0.3426	863.65	1287	1.395
323.15 K, x1 = 0.3978	874.71	1298	1.307
323.15 K, x1 = 0.4512	885.48	1308	1.236
323.15 K, x1 = 0.4985	895.1	1316	1.169
323.15 K, x1 = 0.5526	906.19	1326	1.118
323.15 K, x1 = 0.6071	917.44	1335	1.075
323.15 K, x1 = 0.6491	926.17	1342	1.069
323.15 K, x1 = 0.7101	938.95	1351	1.073
323.15 K, x1 = 0.7485	947.06	1356	1.075
323.15 K, x1 = 0.8019	958.4	1361	1.073
323.15 K, x1 = 0.8521	969.16	1365	1.067
323.15 K, x1 = 0.9045	980.48	1370	1.076
323.15 K, x1 = 0.9554	991.56	1372	1.086
